{"source": "patent US20230025280A1", "about": "“PH RESPONSIVE COMPOSITIONS, FORMULATIONS, AND METHODS OF IMAGING A TUMOR” (ONCONANO MEDICINE, INC, priority 2019, published 2023)", "key": {"[1]": {"system": "tumor positive surgical margins", "assay": "Fluorescence detection of tumor positive surgical margins versus final histopathology", "assay_type": "in vivo, human", "conditions": "1.2 mg/kg; EC; per patient"}, "[2]": {"system": "solid neoplasia", "assay": "Tumor imaging in dogs with solid neoplasia", "assay_type": "in vivo, dog", "experimental": "Materials and methods: After evaluation and recruitment for the study, dog-patients underwent (A) pre-operation analysis to identify possible types of lesion, and (B) Compound 1 tracer was administrated at 0.5 to 2.0 mg/kg, 18-78 hours prior to surgery. During the surgery (C) intra-operative imaging was performed using a Hamamatsu PDE or custom NIR camera before and after tumor removal (or after limb amputations). Resected tissues were (D) imaged with a LI-COR Pearl Imaging station and tumor-to-normal-tissue ratios were calculated accordingly. The resected tissues were then (E) preserved for histopathology validation. Safety was assessed separately in terms of adverse effects through physical examinations, laboratory tests and the recording of adverse events from infusion through discharge from hospital.\nResults: A summary of the data from spayed or neutered dog patients that were recruited for the study is shown below (Table 16). Results from a total of seven dogs of different breeds, aged 4-12 years, body weights ranging from 20.9-59.5 kg, and with a range of tumors ware presented, including instances where more than one tumor was present. Doses studied thus far ranged from 0.5-2.0 mg/kg. […] Both acute and chronic adverse effects were monitored from the time of injection through discharge of the animals from the hospital and follow-up appointments (to remove sutures) and noted."}}, "note": "Entries after “also recorded” stand apart in the source; their conditions may differ."}
{"substance": "PEO90-140-b-P(DBA60-150-r-ICG0-3-r-AMA0-3) [Compound 1]", "values": [{"measurement": "Surgical Margin by Fluorescence", "setting": "[1]", "result": "Negative"}, {"measurement": "Fluorescent signals in diseased tissues", "setting": "[2]; 7 dogs, 0.5-2.0 mg/kg, 24 or 72 hr before surgery", "result": "fluorescent signals were observed where expected for diseased tissues"}, {"measurement": "Detection of occult disease", "setting": "[2]; one dog-patient, metastatic popliteal lymph node", "result": "occult disease was identified; also recorded: identification of occult disease"}]}
